Assay results taken from BigSolDB 2.1.

O=C(O)[C@@H](O)CCc1ccccc1
solubility (mole fraction)
Settings | in ethyl acetate | in toluene | in water
278.2 K | 0.107 | – | –
283.2 K | 0.117 | – | 0.00071
288.2 K | 0.128 | 0.0013 | 0.00094
293.2 K | 0.14 | 0.00169 | 0.00107
298.2 K | 0.15 | 0.00235 | 0.00137
303.2 K | 0.16 | 0.00298 | 0.00172
308.2 K | 0.174 | 0.00407 | 0.00229
313.2 K | 0.182 | 0.00555 | 0.00311
318.2 K | – | 0.00729 | 0.00406
323.2 K | – | 0.00996 | 0.00701
328.2 K | – | 0.0127 | 0.0142
333.2 K | – | 0.0173 | 0.044
338.2 K | – | 0.0238 | –
343.2 K | – | 0.0341 | –
